Reference: the supplement of paper PMC8671470

Assays:
Conditions in all cases: 72 h
SHI-1 [1] = assay: cell viability (% survival relative to DMSO control, bortezomib = 0%); higher = less cytotoxic
Outline: (§1)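 After 72 h at 37 °C with 5% CO2, cell viability in 384-well plates was measured by CellTiter-Glo luminescence. The plates held compounds pre-printed at 1, 10, 100, 1000 or 10000 nM in duplicate, and cells from 10 AML and 5 CML lines seeded at densities titrated to linear growth. Percent survival is the duplicate mean, normalised to vehicle as 100% and a 10 µM positive control as 0%.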

K-562 [2] = assay: as above
Outline: as §1

KU-812 [3] = assay: as above
Outline: as §1

BV-173 [4] = assay: as above
Outline: as §1

Mono-Mac-6 [5] = assay: as above
Outline: as §1

ML-2 [6] = assay: as above
Outline: as §1

NOMO-1 [7] = assay: as above
Outline: as §1

THP-1 [8] = assay: as above
Outline: as §1

KG-1 [9] = assay: as above
Outline: as §1

HEL [10] = assay: as above
Outline: as §1

MV4-11 [11] = assay: as above
Outline: as §1

MOLM-13 [12] = assay: as above
Outline: as §1

HL-60 [13] = assay: as above
Outline: as §1

KCL-22 [14] = assay: as above
Outline: as §1

SHI-1 [15] = test system: SHI-1
Outline: (§2)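 Fifteen myeloid leukaemia lines in RPMI 1640 were treated for 72 h at 37 °C and 5% CO2 with five tenfold doses from 1 to 10,000 nM, in duplicate. ATP luminescence was normalised to vehicle and to a positive control at 10 µM, then fitted with a four-parameter log-logistic model. The IC50 came from these fits.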

K-562 [16] = test system: K-562
Outline: as §2

KU-812 [17] = test system: KU-812
Outline: as §2

BV-173 [18] = test system: BV-173
Outline: as §2

Mono-Mac-6 [19] = test system: Mono-Mac-6
Outline: as §2

ML-2 [20] = test system: ML-2
Outline: as §2

NOMO-1 [21] = test system: NOMO-1
Outline: as §2

THP-1 [22] = test system: THP-1
Outline: as §2

KG-1 [23] = test system: KG-1
Outline: as §2

HEL [24] = test system: HEL
Outline: as §2

MV4-11 [25] = test system: MV4-11
Outline: as §2

MOLM-13 [26] = test system: MOLM-13
Outline: as §2

HL-60 [27] = test system: HL-60
Outline: as §2

LAMA-84 = test system: LAMA-84
Outline: as §2

KCL-22 [28] = test system: KCL-22
Outline: as §2

HL-60 [29] = assay: area under dose-response curve (viability, 1 nM-10 uM) (fraction (0-1)); higher = more sensitive
Outline: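 In 384-well plates, the full library was rescreened in duplicate on HL-60 cells in RPMI 1640 with 10% FBS, at 1–10,000 nM in five tenfold concentrations, for 72 h at 37 °C, 5% CO2. Each run also held DMSO or 100 nM of one of three metabolic inhibitors. Viability was measured by CellTiter-Glo and normalised to DMSO wells and to wells with proteasome inhibitor, present at 10 μM. Any area under the curve comes from four-parameter log-logistic fitting with drc and PharmacoGx.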

O=C1O/C(=C/Br)CCC1c1cccc2ccccc12 (configuration not stated) [Bromoenol Lactone]
Conditions	area under dose-response curve, co-treatment: AZD3965 100 nM	area under dose-response curve, co-treatment: DMSO vehicle	area under dose-response curve, co-treatment: GSK2194069 100 nM	area under dose-response curve, co-treatment: pictilisib 100 nM	cell viability, 1 nM [%]	cell viability, 10 nM [%]	cell viability, 100 nM [%]	cell viability, 1000 nM [%]	cell viability, 10000 nM [%]
BV-173 [4]	–	–	–	–	98.1	104	94.8	85.9	24.3
HEL [10]	–	–	–	–	105	103	91.3	99.8	41.3
HL-60 [13]	–	–	–	–	100	101	144	90.7	77.2
HL-60 [29]	< 0.0301	< 0.0301	< 0.0301	< 0.0301	–	–	–	–	–
K-562 [2]	–	–	–	–	102	106	98.1	93.5	46.9
KCL-22 [14]	–	–	–	–	95.3	93.1	104	86.6	52.2
KG-1 [9]	–	–	–	–	97.7	97.7	101	89.8	56.6
KU-812 [3]	–	–	–	–	98.3	93.3	102	86.1	45.8
ML-2 [6]	–	–	–	–	102	100	94.6	92.9	59.7
MOLM-13 [12]	–	–	–	–	96.5	94	112	91.5	44.1
MV4-11 [11]	–	–	–	–	99	106	105	92.4	45.8
Mono-Mac-6 [5]	–	–	–	–	98.4	102	93.8	95.6	52.7
NOMO-1 [7]	–	–	–	–	108	100	100	82.7	40.4
SHI-1 [1]	–	–	–	–	102	92.9	108	91.2	83.2
THP-1 [8]	–	–	–	–	97.3	97.6	92.3	81.4	44.7

Conditions	IC50 (cell viability) [µM]
BV-173 [18]	4.15
HEL [24]	8.39
HL-60 [27]	> 10
K-562 [16]	9.03
KCL-22 [28]	7.07
KG-1 [23]	8.59
KU-812 [17]	5.18
LAMA-84	> 10
ML-2 [20]	> 10
MOLM-13 [26]	5.36
MV4-11 [25]	5.73
Mono-Mac-6 [19]	> 10
NOMO-1 [21]	3.55
SHI-1 [15]	> 10
THP-1 [22]	4.53

CC[C@H](C)C(=O)O[C@H]1C[C@@H](C)C=C2C=C[C@H](C)[C@H](CC[C@@H]3C[C@@H](O)CC(=O)O3)[C@H]21 [Lovastatin]
Conditions	area under dose-response curve, co-treatment: AZD3965 100 nM	area under dose-response curve, co-treatment: DMSO vehicle	area under dose-response curve, co-treatment: GSK2194069 100 nM	area under dose-response curve, co-treatment: pictilisib 100 nM	cell viability, 1 nM [%]	cell viability, 10 nM [%]	cell viability, 100 nM [%]	cell viability, 1000 nM [%]	cell viability, 10000 nM [%]
BV-173 [4]	–	–	–	–	109	94.6	95.3	98.7	79.1
HEL [10]	–	–	–	–	101	87.8	114	92.6	86.3
HL-60 [13]	–	–	–	–	96.8	113	101	101	102
HL-60 [29]	< 0.0301	< 0.0301	< 0.0301	0.0554	–	–	–	–	–
K-562 [2]	–	–	–	–	108	98.9	101	99.3	88.4
KCL-22 [14]	–	–	–	–	93.6	67.8	114	98.8	95.4
KG-1 [9]	–	–	–	–	98.7	93.3	107	96.3	90.2
KU-812 [3]	–	–	–	–	102	96.4	94	87.2	84
ML-2 [6]	–	–	–	–	108	105	111	104	102
MOLM-13 [12]	–	–	–	–	86.4	85.7	83.8	87.4	74.7
MV4-11 [11]	–	–	–	–	97.6	97.3	106	93.5	93.2
Mono-Mac-6 [5]	–	–	–	–	97.4	101	95.7	96.8	92.2
NOMO-1 [7]	–	–	–	–	101	91.9	97.2	93.6	90.7
SHI-1 [1]	–	–	–	–	97.5	97.6	104	93.8	92.5
THP-1 [8]	–	–	–	–	98.1	88.8	100	97.3	98.6

Conditions	IC50 (cell viability) [µM]
BV-173 [18]	> 10
HEL [24]	> 10
HL-60 [27]	> 10
K-562 [16]	> 10
KCL-22 [28]	> 10
KG-1 [23]	> 10
KU-812 [17]	> 10
LAMA-84	> 10
ML-2 [20]	> 10
MOLM-13 [26]	> 10
MV4-11 [25]	> 10
Mono-Mac-6 [19]	> 10
NOMO-1 [21]	> 10
SHI-1 [15]	> 10
THP-1 [22]	> 10

O=C(NCCCCCCNC(=O)ONC1=CCCCC1)ONC1=CCCCC1
Conditions	area under dose-response curve, co-treatment: AZD3965 100 nM	area under dose-response curve, co-treatment: DMSO vehicle	area under dose-response curve, co-treatment: GSK2194069 100 nM	area under dose-response curve, co-treatment: pictilisib 100 nM	cell viability, 1 nM [%]	cell viability, 10 nM [%]	cell viability, 100 nM [%]	cell viability, 1000 nM [%]	cell viability, 10000 nM [%]
BV-173 [4]	–	–	–	–	89.4	107	114	110	95.2
HEL [10]	–	–	–	–	90.8	104	117	113	90.9
HL-60 [13]	–	–	–	–	106	107	124	111	93.8
HL-60 [29]	< 0.0301	< 0.0301	< 0.0301	< 0.0301	–	–	–	–	–
K-562 [2]	–	–	–	–	97.9	120	116	101	89.5
KCL-22 [14]	–	–	–	–	106	100	115	102	94.6
KG-1 [9]	–	–	–	–	90.4	122	114	92.8	90.4
KU-812 [3]	–	–	–	–	104	110	113	101	92.4
ML-2 [6]	–	–	–	–	94.8	107	108	107	99.1
MOLM-13 [12]	–	–	–	–	118	97	109	98.7	86
MV4-11 [11]	–	–	–	–	91.1	104	106	100	96.3
Mono-Mac-6 [5]	–	–	–	–	90.6	110	103	98.8	102
NOMO-1 [7]	–	–	–	–	98.9	117	112	112	102
SHI-1 [1]	–	–	–	–	98.7	103	112	112	97.3
THP-1 [8]	–	–	–	–	89.4	114	109	97.4	100

Conditions	IC50 (cell viability) [µM]
BV-173 [18]	> 10
HEL [24]	> 10
HL-60 [27]	> 10
K-562 [16]	> 10
KCL-22 [28]	> 10
KG-1 [23]	> 10
KU-812 [17]	> 10
LAMA-84	> 10
ML-2 [20]	> 10
MOLM-13 [26]	> 10
MV4-11 [25]	> 10
Mono-Mac-6 [19]	> 10
NOMO-1 [21]	> 10
SHI-1 [15]	> 10
THP-1 [22]	> 10
